Measured values reported in patent publication US11766414B2, “Compositions, delivery systems, and methods useful in tumor therapy” (Indi Molecular, Inc., priority 2020, dated 2023).
Starred links: 1 amine or outer side, 2 acyl side, 3 side chain; linkers in the order of their positions; H or OH if unused. Positions of bridges follow the written chain, without caps; N, C: chain ends. Non-standard residues stand in square brackets, D forms with d. Residues, ends and D or L forms follow the SMILES beside them. Triazole bridges read from a SMILES are 1,4-linked. *: point of attachment. DOTA = O=C(O)CN1CCN(CC(=O)O)CCN(CC(=O)*)CCN(CC(=O)O)CC1; Pteroyl = Nc1nc2ncc(CNc3ccc(C(=O)*)cc3)nc2c(=O)[nH]1; Butanoyl(4-(4-MePh)) = Cc1ccc(CCCC(=O)*)cc1; Lys(N3) = [N-]=[N+]=NCCCC[C@H](N)C(=O)O; γGlu = O=C(O)[C@H](CCC(=O)[*:2])N[*:1]; AEEEA = NCCOCCOCCOCC(=O)O; Pra = C#CC[C@H](N)C(=O)O

What was measured:
human plasma proteins = test: Plasma protein binding, human plasma; assay type: in vitro ADME; settings: human plasma
Protocol: (§1) HTD 96 a/b regenerated cellulose membrane strips with mass cutoff of 12-14 kDa were soaked in ultra-pure water at room temperature for 1 hour. Each swelled membrane was then soaked in 20:80 ethanol:water for 20 minutes.
(§2) Just prior to the experiment, the membranes were re-soaked in ultra-pure water. Plasma was prepared by thawing under cold water. The plasma was centrifuged to remove any clots and pH was adjusted to 7.0-8.0. Test articles and control compounds were diluted to 2 μM. The dialysis device was loaded by transferring 150 μL of the test article (in triplicate) to the donor side. The dialysis device was placed in a humidified incubator at 37° C. with 5% CO2 in a shaking platform that rotated slowly for 4 hours. After incubation, 50 μL of the supernatant was taken from both sides and analyzed by LC-MS/MS.

mouse plasma proteins = test: Plasma protein binding, CD-1 mouse plasma; assay type: in vitro ADME; settings: CD-1 mouse plasma
Protocol: as §1, §2

[1] = system: OVCAR3 (FOLR1+) tumor bearing NSG mice; settings: mouse, in vivo, iv, 200 uCi, 4 h
Protocol: Female, 7-week-old NSG mice were housed under pathogen-free conditions. Water and food were provided ad libitum. To create mice with FOLR1+ ovarian xenograft tumors, mice were injected subcutaneously with OVCAR3 cells (1×10^7 cells per mouse) resuspended in 50% Matrigel in PBS into the shoulder region. Tumor growth was monitored by caliper measurements. OVCAR3 is a human ovarian adenocarcinoma known to over-express FOLR1.
^68Ga PET imaging was used to study in vivo biodistribution of heterobiligands in non-tumor bearing (healthy) mice and OVCAR3 tumor bearing mice. 100-200 μCi of [^68Ga]DOTA-labeled heterobiligand was administered intravenously (i.v.) via the tail vein of each mouse. […]
Evaluation of a folate-hshta (SEQ ID NO:6) Nterm heterobiligand bearing both an albumin binder and DOTA chelator in PET was a priority, given that DOTA can accommodate both ^68Ga for imaging and ^177Lu for radiotherapy. […] The time-course biodistribution of ^68Ga-labeled folate-hshta-PEG3-Lys(MPBA)-Lys(DOTA) (SEQ ID NO:6) (compound #2809) was calculated to quantify the uptake in major organs including the tumor (FIG. 17). […] Larger tumors (490 mm^3) were also evaluated with the ^68Ga-chelated PET probe.
Biodistribution was initially evaluated by PET imaging, as the time frame for a significant portion of clearance is roughly similar to the time frame of PET imaging experiments. […]

Row | SMILES | Plasma % Bound, Hu (human plasma proteins) [%] | Plasma protein binding % Recovery, Hu (human plasma proteins) [%] | Plasma % Bound, Mu (mouse plasma proteins) [%] | Plasma protein binding % Recovery, Mu (mouse plasma proteins) [%] | accumulation within the tumor [1]
1 | C[C@@H](O)[C@@H]1NC(=O)[C@H](CCCCN)NC(=O)[C@@H](Cc2c[nH]c3ccccc23)NC(=O)[C@H](Cc2ccccc2)NC(=O)[C@@H](NC(=O)[C@H](N)Cc2ccccc2)CSSC[C@@H](C(=O)N[C@H](CO)[C@@H](C)O)NC1=O [Octreotide Acetate, reference compound] | 59.41 | 84.3 | 62.36 | 84.5 | 
2 | Cc1ccc(CCCC(=O)NCCCC[C@H](NC(=O)COCCOCCOCCNC(=O)[C@@H]2CCCCn3cc(nn3)C[C@H](NC(=O)CC[C@H](NC(=O)c3ccc(NCc4cnc5nc(N)[nH]c(=O)c5n4)cc3)C(=O)O)C(=O)N[C@H](Cc3c[nH]cn3)C(=O)N[C@H](CO)C(=O)N[C@H](Cc3c[nH]cn3)C(=O)N[C@H]([C@H](C)O)C(=O)N[C@H](C)C(=O)N2)C(=O)N[C@@H](CCCCNC(=O)CN2CCN(CC(=O)O)CCN(CC(=O)O)CCN(CC(=O)O)CC2)C(N)=O)cc1 [^68Ga-chelated compound #2809, metal not drawn] ({Pteroyl-γGlu}-[Pra][dH][dS][dH][dT][dA][Lys(N3)][AEEEA]K(Butanoyl(4-(4-MePh)))K(DOTA)-NH2; triazole 1-7) |  |  |  |  | ~2.2 % of the injected dose/cc
